Assay results from patent publication US8389468B2, “Approach to the treatment of compartment syndrome” (Lantmannen AS-Faktor AB, priority 2006, dated 2013).
Entries after “also recorded” stand apart in the source; their conditions may differ.

Legend:
[1] = tested on: HSV-1; assay: Immunohistochemical visualization of HSV-1 proteins in brain, rats; assay type: in vivo, rat; conditions: 1 or 10 pg intranasally twice daily, day 6
Procedure: (§1) An alternative explanation to the improved survival of HSV-1 infected animals could be that the treatment with AF-16 prevented the virus from multiplying and/or spreading in the brain. […] Adult rats were infected by having a solution of the herpes simplex virus type 1 (HSV-1; strain 2762, batch 041028; 1.7×10^7 PFU/mL) instilled in their right nostril. Half of the animals received 10 min later 25 pi_ (1 or 10 pg) of AF-16 in their right nostril, and had thereafter the same dose of AF-16 instilled every morning at 8 AM and every night at 6 PM until the experiment was terminated on day 6. The other groups of the HSV-1 infected rats received at the same time intervals 25 pL of the vehicle, PBS. The animals were closely watched for signs of general sickness and of behavioral and motor dysfunction. The animals were sacrificed by an overdose of anesthetics on day 6, the skull opened and the brain removed. The brains, including the olfactory bulbs, were fixed by immersion in buffered formalin for at least a day. The brains were the dissected and divided in several specimens, which were processed for light microscopic investigation after paraffin embedding and sectioning. The sections were processed for routine staining and for immunohistochemical visualization of HSV-1 proteins (FIG. 4). […] Note the distinct staining of the nerve cells (black in FIG. 4a-c).

[2] = tested on: HSV-1; assay: Immunohistochemical demonstration of HSV antigens in brain, mice; assay type: in vivo; conditions: instillation twice daily in right nostril, six days
Procedure: as §1

[3] = tested on: sciatic nerve; assay: Sciatic nerve crush, intraneural pressure; assay type: in vivo, rat
Description: Peripheral and autonomic nerves are all delimited by an endoneurium, an perineurium and outermost an epineurium. Multiple nerve fascicles form a nerve (Cf. Hansson et al., 1987). Tendons and some of the ligaments in a body are delimited by a tender collagen membrane-like structure, the synovial sheath. The inner border layer of the latter connect the tendon with its synovial vagina, which enable sliding at minimal friction. The periphery of the latter structure is enclosed by a fibrous, membrane-like layer, the fibrous vagina. The enclosing paratendinium is in some locations hold in position and receiving nutrition by mesotendons and by vinculae (Cf. Hansson et al., 1980). […] Such a procedure resulted not only in impaired nerve function and structure but also in impaired blood and lymph circulation, and caused swelling of the sciatic nerve, the development of oedema, which included adjacent and enveloping structures, The IFP turned elevated, as assessed by the insertion of a Samba fibre optic pressure measuring probe in the affected tissue. […] The pressure in the perineurium was determined to become elevated in a day in those treated with just the vehicle, in agreement with the macroscopically recognized swelling and local oedema, i.e. having developed a CS. […]

[4] = tested on: femoral artery; assay: Injured arteries, local delivery by osmotic minipump; assay type: in vivo, rat
Description: During surgery and at a trauma arteries may be injured, causing the vascular wall to swell. These events will result in the development of elevated IFP in the vascular wall, resulting in inflammatory reactions and rebuilding (Hansson, Jennische & Skottner, 1987). […] Additional animals had for comparison their pumps filled with the vehicle. The injured arteries were investigated either 3, 5, 7 or 14 days later. Blood vessels recovered from the vehicle-treated animals were tender, had increased outer diameter and were swollen. […] The potency rate was higher for those treated with AF-16 as compared to the vehicle exposed ones. […] Further, the number of macrophages, foam cells and lymphocytes was as well reduced by the AF-16 treatment.

[5] = tested on: Staphylococcus areus; assay: Yellow pigment retained in cultured Staphylococcus areus; assay type: cell-based; conditions: cultured over night or 2 days with AF-16, vs vehicle
Description: Effects of AF was investigated in addition in prokaryotic cells, which are enclosed by a complex cell wall, thereby enabling the development of elevated pressure due to hampered membrane functions. That was done in bacteria, which synthesize and release a wide variety of substances that may cause damage to mammalian cells and thus to a body. Examples on such products are pigments, enzymes and toxins, which are transferred through the outer bacterial membrane to the extracellular environment. Inhibition of such membrane activities would reduce or even block the transfer and/or release of such pathogenic substances. In order to investigate if the peptide AF-16 affected the transfer of bacterial products from its synthesis in the bacterium to its environment, the following experiment was performed. The bacterium Staphylococcus areus, which synthesize a yellow pigment, was cultured over night or, occasionally for 2 days, in the presence or absence of the peptide AF-16. After a day or two was the bacterial culture rinsed, and then concentrated by centrifugation. The yellow pigment formed by the Staphylococcus areus was extracted from the permeabilized, pelleted bacteria with methanol and the light absorption determined by spectrometry.

VCHSKTRSNPENNVGL [AF-16]
prevalence and distribution of HSV-1 proteins in the brain vs vehicle [1]: no obvious difference with regard to the prevalence and distribution of HSV-1 proteins; also recorded: no difference in frequency or distribution of HSV-1 positive brain cells
distribution or extent of virus antigens in the brain vs vehicle [2]: no obvious difference in the distribution or extent of virus antigens
intraneural pressure ([3]; crushed sciatic nerve, high dose from time of injury): slightly elevated or close to that measured in a normal nerve
inflammation, oedema and tissue distortion (light microscopy) ([3]; injured sciatic nerves): reduced the inflammation and the oedema and the tissue distortion
swelling and inflammation of injured vessels ([4]; 3, 5, 7 or 14 days, vs vehicle): less swollen and inflamed
damage, inflammatory reactions and reactive alterations (neointima) of femoral artery ([4]; after 14 days, vs vehicle): less damage and less prominent inflammatory reactions and less extensive reactive alterations
number of macrophages, foam cells and lymphocytes ([4]; rat, in vivo): reduced
potency rate ([4]; vs vehicle): higher
yellow pigment extracted from bacteria (light absorption), corrected for number of bacteria [5]: much more of the yellow pigment
